# Measurements taken from patent US20050070596A1, “Methods for treatment of inflammatory diseases using CT-3 or analogs thereof” (priority 2003, published 2005).
# B1: IFN-.gamma.: cytokine administered in attempts to alleviate the symptoms of MS (protein, UniProt P01579 24-161, looked up)
# Interferon gamma: QDPYVKEAENLKKYFNAGHSDVADNGTLFLGILKNWKEESDRKIMQSQIVSFYFKLFKNFKDDQSIQKSVETIKEDMNVKFFNSNKKKRDDFEKLTNYSVTDLNVQRKAIHELIQVMAELSPAAKTGKRKRSQMLFRG
# How the values were obtained:
# [1] = system: mRNA of IL-1, IL-6 and TNFα; details: BALB/C mice injected with cannabidiol; cited from earlier work
# [2] = in vivo; cited from earlier work
# human leukocytes = details: cited from earlier work; for IFNγ synthesis: high concentrations (5-24µg/ml); for IFNγ production: low concentrations
# PBQ-induced writhing = details: given orally at doses up to 10 mg/kg; cited from earlier work
# TPA-induced erythema = details: applied topically; cited from earlier work
# [3] = system: mouse peritoneal macrophages activated by LPS and IFNγ; details: cited from earlier work
# CB2 = CB2 (Homo sapiens, UniProt P34972); details: cited from earlier work
# Chain of CB2 (P34972 whole entry, species assumed): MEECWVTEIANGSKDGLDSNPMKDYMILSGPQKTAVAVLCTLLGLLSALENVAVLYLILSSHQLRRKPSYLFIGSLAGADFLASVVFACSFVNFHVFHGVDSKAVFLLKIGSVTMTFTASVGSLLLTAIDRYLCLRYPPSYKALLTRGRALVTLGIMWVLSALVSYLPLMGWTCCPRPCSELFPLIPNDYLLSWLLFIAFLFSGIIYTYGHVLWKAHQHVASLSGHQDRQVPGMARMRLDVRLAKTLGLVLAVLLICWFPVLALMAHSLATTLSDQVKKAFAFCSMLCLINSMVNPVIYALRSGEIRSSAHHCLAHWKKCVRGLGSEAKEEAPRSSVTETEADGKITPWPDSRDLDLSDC
# Legionella = details: mouse, in vivo; cited from earlier work
# [4] = system: levadopa-induced dyskinesia in Parkinson's disease; details: in vivo; cited from earlier work
# [5] = system: mouse experimental model of multiple sclerosis; assay: inhibition of spasticity in a mouse experimental model of multiple sclerosis; type: in vivo; details: for spasticity (limb stiffness assessed by the force required to bend the limb): ***P<0.001 compared to baseline
# Method: FIG. 7 illustrates cannabinoid-mediated inhibition of spasticity in a mouse experimental model of multiple sclerosis^35. Compounds were injected intravenously (i.v.) and the level of THC (1 mg/kg i.v.) was matched to the THC content in a cannabis extract (obtained under UK Home Office Licence). […] Nabilone (1 mg/kg i.v.) a synthetic analogue of THC (generously supplied by Cambridge Biomedicals, Cesamet) could inhibit spasticity to maximal levels (˜45-50% inhibition). Mean change compared to baseline (n=10/group)
# people with chronic pain = details: oral; chronic pain (n=60), those with MS; cited from earlier work
# [6] = system: tics in Tourette's syndrome; details: oral; cited from earlier work
# CB1 receptors = CB1 receptors (Homo sapiens, UniProt P21554); details: cited from earlier work
# Chain of CB1 receptors (P21554 whole entry): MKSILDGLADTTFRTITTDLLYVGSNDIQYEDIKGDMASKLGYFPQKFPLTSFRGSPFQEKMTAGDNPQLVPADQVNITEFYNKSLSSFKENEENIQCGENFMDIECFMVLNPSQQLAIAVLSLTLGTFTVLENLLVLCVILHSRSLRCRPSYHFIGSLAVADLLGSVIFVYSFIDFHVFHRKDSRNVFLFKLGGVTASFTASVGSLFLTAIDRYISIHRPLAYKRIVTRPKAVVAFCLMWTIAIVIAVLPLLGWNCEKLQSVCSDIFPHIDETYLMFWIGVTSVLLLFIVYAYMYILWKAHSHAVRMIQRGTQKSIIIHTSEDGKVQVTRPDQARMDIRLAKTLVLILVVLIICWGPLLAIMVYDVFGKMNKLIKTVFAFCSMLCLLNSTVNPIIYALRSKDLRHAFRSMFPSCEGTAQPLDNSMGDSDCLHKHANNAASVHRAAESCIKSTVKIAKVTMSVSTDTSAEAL
# NMDA receptor = details: cited from earlier work
# head trauma = details: phase II; cited from earlier work
# MS patients = details: within one month after initiation of treatment; cited from earlier work
molecule,measurement,setting,value
C=C(C)[C@@H]1CCC(C)=C[C@H]1c1c(O)cc(CCCCC)cc1O [Cannabidiol],"level of mRNA of IL-1, IL-6 and TNFα",[1],did not show significant change
same,psychoactivity,[2],no psychotropic
same,IL-1 production,human leukocytes,decreased
same,IL-2 secretion,human leukocytes,did not affect
same,TNFα production,human leukocytes,decreased
same,IFNγ synthesis,human leukocytes,completely blocked
same,IFNγ production,human leukocytes,increase
same,PBQ-induced writhing,PBQ-induced writhing,inhibited
same,TPA-induced erythema,TPA-induced erythema,reduce
same,nitric oxide (NO) production,[3],inhibited
same,binding to CB2 receptor,CB2,does not bind
same,mortality,Legionella,not affected
CCCCCCC(C)(C)c1cc(O)c2c(c1)OC(C)(C)C1CCC(=O)CC21 (stereo not drawn) [Nabilone],levadopa-induced dyskinesia,[4],inhibit
same,inhibition at 1 mg/kg,"[5]; Mus musculus, iv, 1 mg/kg i.v., mean change compared to baseline, maximal levels",45 to 50%
same,MS patients reporting some analgesic effect,people with chronic pain,six of 16
"CCCCCc1cc(O)c2c(c1)OC(C)(C)[C@@H]1CCC(C)=C[C@@H]21 [THC, delta 9 tetrahydrocannabinol]",inhibition of spasticity,[5]; THC 1 mg/kg i.v.,capacity to induce maximal inhibition of spasticity
same,IFNγ synthesis,human leukocytes,completely blocked
same,IFNγ production,human leukocytes,increase
same,tics,[6],can inhibit tics
same,nitric oxide (NO) production,[3],inhibited
CCCCCCC(C)(C)c1cc(O)c2c(c1)OC(C)(C)[C@@H]1CC=C(C(=O)O)C[C@@H]21 [ajulemic acid],spasticity (limb stiffness assessed by the force required to bend the limb),[5],inhibits spasticity
same,spasticity (limb stiffness assessed by the force required to bend the limb),[5]; listed as Ajulemic acid,anti-spastic
same,cannabimimetic effects,[2],dose not induce cannabimimetic effects
same,direct stimulation of CB1 receptors,CB1 receptors,does not directly stimulate CB1 receptors to a significant extent
CCCCCCC(C)(C)c1cc(O)c2c(c1)OC(C)(C)[C@H]1CC=C(CO)C[C@H]21 [dexanabinol],NMDA receptor activity,NMDA receptor,NMDA receptor antagonist
same,efficacy in head trauma,head trauma,some efficacy
B1,patients with clinical exacerbation,MS patients,7 of 18
